From ChEMBL document CHEMBL3272295, “Drugs derived from cannabinoids. 5. delta6a,10a-Tetrahydrocannabinol and heterocyclic analogs containing aromatic side chains” (J Med Chem, 1976)

Key:
[1] = test system: Felis catus; assay: Hypnotic activity in cat assessed as increase in total sleep time at 2 mg/kg administered orally through diet measured for 12 hrs by EEG analysis; type: functional; conditions: route oral
[2] = test system: Rattus norvegicus; assay: (§1) Antidiarrheal activity in Charles River rat assessed as inhibition of castor oil-induced diarrhea by measuring protected animals at 0.5 mg/kg, po administered for 2 days followed by 0.5 mg/kg, po on test day administered 1 hr prior to castor oil challenge measured after 1 hr relative to vehicle-treated control; type: functional
[3] = test system: Rattus norvegicus; assay: Antihypertensive activity in spontaneously hypertensive rat model assessed as reduction in blood pressure at 0.3 mg/kg, po after 3 hrs; type: functional; design: scale not given: the % may be the effect or the level left
[4] = test system: Mus musculus; assay: Anticonvulsant activity in po dosed mouse assessed as dose required to protect 80% of animal measured after 1 to 4 hrs by audiogenic seizure test; type: functional
[5] = test system: Mus musculus; assay: Increase in footshock-induced fighting behavior in albino BALB/cJ mouse at 10 mg/kg, po after 30 to 90 mins; type: functional
[6] = test system: Mus musculus; assay: Analgesic activity in po dosed mouse assessed as inhibition of acetic acid-induced writhing administered 30 mins prior to acetic acid challenge measured after 5 mins for 20 mins; type: functional
[7] = test system: Rattus norvegicus; assay: Antidiarrheal activity in Charles River rat assessed as inhibition of castor oil-induced diarrhea by measuring protected animals at 0.05 mg/kg, po administered 1 hr prior to castor oil challenge measured after 1 hr relative to vehicle-treated control; type: functional
[8] = test system: Rattus norvegicus; assay: as §1, with “by 1” for “by 0.5”; type: functional
[9] = test system: Mus musculus; assay: Antianxiety activity in albino BALB/cJ mouse assessed as reduction in footshock-induced fighting behavior at 5 mg/kg, po after 30 to 90 mins; type: functional; design: scale not given: the % may be the effect or the level left
[10] = test system: Rattus norvegicus; assay: Antidiarrheal activity in Charles River rat assessed as inhibition of castor oil-induced diarrhea by measuring protected animals at 0.1 mg/kg, po administered 1 hr prior to castor oil challenge measured after 1 hr relative to vehicle-treated control; type: functional
[11] = test system: Rattus norvegicus; assay: Antisecretory activity in Sprague-Dawley rat assessed as decrease in volume at 50 mg/kg, po administered 30 mins prior to pylorus ligation measured after 4 hrs relative to control; type: functional; design: scale not given: the % may be the effect or the level left
[12] = test system: Rattus norvegicus; assay: Antisecretory activity in Sprague-Dawley rat assessed as decrease in acid output at 50 mg/kg, po administered 30 mins prior to pylorus ligation measured after 4 hrs relative to control; type: functional; design: scale not given: the % may be the effect or the level left
[13] = test system: Mus musculus; assay: Antidepressant activity in po dosed mouse assessed as potentiation of DOPA-induced effect administered 4 hrs prior to DOPA challenge; type: functional; conditions: read-out: MED
[14] = test system: Felis catus; assay: Hypnotic activity in cat assessed as increase in non-REM sleep time at 2 mg/kg administered orally through diet measured for 12 hrs by EEG analysis; type: functional; conditions: route oral
[15] = test system: Rattus norvegicus; assay: Analgesic activity in po dosed Sprague-Dawley rat after 15 to 90 mins by tail flick test; type: functional
[16] = test system: Rattus norvegicus; assay: Antianxiety activity in Long-Evans rat assessed as reduction in motor activity at 5 mg/kg, po after 2 hrs relative to vehicle-treated control; type: functional; design: scale not given: the % may be the effect or the level left
[17] = species on record: Rattus norvegicus; assay: animal or person; type: functional; conditions: Charles River, route oral
Description: Antidiarrheal activity in Charles River rat assessed as inhibition of castor oil-induced diarrhea by measuring protected animals at 0.5 mg/kg, po administered 1 hr prior to castor oil challenge measured after 1 hr relative to vehicle-treated control

[18] = test system: Rattus norvegicus; assay: Antisecretory activity in Sprague-Dawley rat assessed as decrease in acidity at 50 mg/kg, po administered 30 mins prior to pylorus ligation measured after 4 hrs relative to control; type: functional; design: scale not given: the % may be the effect or the level left
[19] = test system: Rattus norvegicus; assay: Antihypertensive activity in spontaneously hypertensive rat model assessed as reduction in blood pressure at 0.3 mg/kg, po after 24 hrs; type: functional; design: scale not given: the % may be the effect or the level left
[20] = test system: Canis familiaris; assay: Antianxiety activity in po dosed dog assessed as ataxia administered as single dose measured up to 24 hrs; type: functional; conditions: Canis lupus familiaris, read-out: MED
[21] = test system: Felis catus; assay: Hypnotic activity in cat assessed as decrease in non-REM sleep time at 0.5 mg/kg administered orally through diet measured for 12 hrs by EEG analysis; type: functional; conditions: route oral
[22] = test system: Rhesus monkey; assay: Antianxiety activity in po dosed rhesus monkey assessed as antiagressive behavior measured every hour post dosing; type: functional; conditions: Macaca mulatta, read-out: MED
[23] = Acute toxicity in po dosed mouse; type: organism-based; conditions: in vivo
[24] = test system: Rattus norvegicus; assay: Antisecretory activity in Sprague-Dawley rat assessed as decrease in pepsin output at 50 mg/kg, po administered 30 mins prior to pylorus ligation measured after 4 hrs relative to control; type: functional; design: scale not given: the % may be the effect or the level left
[25] = test system: Mus musculus; assay: Antianxiety activity in albino BALB/cJ mouse assessed as reduction in footshock-induced fighting behavior at 1 mg/kg, po after 30 to 90 mins; type: functional; design: scale not given: the % may be the effect or the level left
[26] = test system: Rattus norvegicus; assay: Antipsychotic activity in rat assessed as reduction of methamphetamine-induced hyperactivity at 2 mg/kg, po administered prior to methamphetamine challenge relative to vehicle-treated control; type: functional; design: scale not given: the % may be the effect or the level left
[27] = test system: Rattus norvegicus; assay: Antipsychotic activity in rat assessed as reduction of methamphetamine-induced hyperactivity at 0.5 mg/kg, po administered prior to methamphetamine challenge relative to vehicle-treated control; type: functional; design: scale not given: the % may be the effect or the level left
[28] = test system: Felis catus; assay: Hypnotic activity in cat assessed as decrease in total sleep time at 0.5 mg/kg administered orally through diet measured for 12 hrs by EEG analysis; type: functional; conditions: route oral
[29] = test system: Rattus norvegicus; assay: Antisecretory activity in Sprague-Dawley rat assessed as decrease in pepsin concentration at 50 mg/kg, po administered 30 mins prior to pylorus ligation measured after 4 hrs relative to control; type: functional; design: scale not given: the % may be the effect or the level left
[30] = test system: Rattus norvegicus; assay: as §1, with “0.2” for “0.5”, “5” for “2”; type: functional
[31] = test system: Felis catus; assay: Hypnotic activity in cat assessed as increase in non-REM sleep time at 0.5 mg/kg administered orally through diet measured for 12 hrs by EEG analysis; type: functional; conditions: route oral
[32] = test system: Rattus norvegicus; assay: Antianxiety activity in Long-Evans rat assessed as reduction in motor activity at 10 mg/kg, po after 2 hrs relative to vehicle-treated control; type: functional; design: scale not given: the % may be the effect or the level left
[33] = test system: Mus musculus; assay: Increase in footshock-induced fighting behavior in albino BALB/cJ mouse at 5 mg/kg, po after 30 to 90 mins; type: functional
[34] = test system: Rattus norvegicus; assay: Antipsychotic activity in rat assessed as reduction of methamphetamine-induced hyperactivity at 1 mg/kg, po administered prior to methamphetamine challenge relative to vehicle-treated control; type: functional; design: scale not given: the % may be the effect or the level left
[35] = test system: Felis catus; assay: Hypnotic activity in cat assessed as increase in total sleep time at 0.5 mg/kg administered orally through diet measured for 12 hrs by EEG analysis; type: functional; conditions: route oral
[36] = test system: Rattus norvegicus; assay: Antipsychotic activity in rat assessed as reduction of methamphetamine-induced hyperactivity at 5 mg/kg, po administered prior to methamphetamine challenge relative to vehicle-treated control; type: functional; design: scale not given: the % may be the effect or the level left
[37] = species on record: Rattus norvegicus; assay: animal or person; conditions: Charles River, po, read-out: INH
Description: Antidiarrheal activity in Charles River rat assessed as inhibition of castor oil-induced diarrhea by measuring protected animals at 2 mg/kg, po administered 1 hr prior to castor oil challenge measured after 1 hr relative to vehicle-treated control

[38] = species on record: Rattus norvegicus; assay: animal or person; type: functional; conditions: Charles River, route oral; remark: listed apart in the source
Description: Antidiarrheal activity in Charles River rat assessed as inhibition of castor oil-induced diarrhea by measuring protected animals at 1 mg/kg, po administered 1 hr prior to castor oil challenge measured after 1 hr relative to vehicle-treated control

**Q.** With `CC1CCC2=C(C1)c1c(O)cc(C(C)CCCc3ccc(F)cc3)cc1OC2(C)C` (stereo not given) as the molecule, how does the Time [1] read?
**A.** Its Time is 126 min.

**Q.** What about the inhibition in vivo at 0.5 mg/kg [2] of the same molecule?
**A.** The inhibition in vivo at 0.5 mg/kg was 0%.

**Q.** What about the Activity [3] of the same molecule?
**A.** The Activity was 31%.

**Q.** What about the Activity [4] of the same molecule?
**A.** Its Activity is 30 mg/kg.

**Q.** What about the Activity [5] of the same molecule?
**A.** Its Activity is 26%.

**Q.** And the ED50 [6]?
**A.** Its ED50 is 8.3 mg/kg.

**Q.** And the inhibition in vivo at 0.05 mg/kg [7]?
**A.** Its inhibition in vivo at 0.05 mg/kg is 0%.

**Q.** What about the “inhibition (INH)” value [8] of the same molecule?
**A.** The value was 0%.

**Q.** What about the Activity [9] of the same molecule?
**A.** Its Activity is 92%.

**Q.** And the inhibition in vivo at 0.1 mg/kg [10]?
**A.** The inhibition in vivo at 0.1 mg/kg was 50%.

**Q.** And the Activity [11]?
**A.** The Activity was 35.5%.

**Q.** What about the Activity [12] of the same molecule?
**A.** Its Activity is 39.6%.

**Q.** And the minimal effective dose [13]?
**A.** The minimal effective dose was 10 mg/kg.

**Q.** What about the Time [14] of the same molecule?
**A.** Its Time is 94 min.

**Q.** What about the ED50 [15] of the same molecule?
**A.** The ED50 was 5.9 mg/kg.

**Q.** What about the Activity [16] of the same molecule?
**A.** Its Activity is 90%.

**Q.** And the inhibition in vivo at 0.5 mg/kg [17]?
**A.** Its inhibition in vivo at 0.5 mg/kg is 70%.

**Q.** And the Activity [18]?
**A.** The Activity was 7.8%.

**Q.** What about the Activity [19] of the same molecule?
**A.** The Activity was 12%.

**Q.** What about the minimal effective dose [20] of the same molecule?
**A.** Its minimal effective dose is 0.5 mg/kg.

**Q.** And the Time [21]?
**A.** Its Time is -4 min.

**Q.** What about the minimal effective dose [22] of the same molecule?
**A.** Its minimal effective dose is 0.1 mg/kg.

**Q.** What about the LD50 [23] of the same molecule?
**A.** The LD50 was ≥ 1000 mg/kg.

**Q.** What about the Activity [24] of the same molecule?
**A.** The Activity was 43.7%.

**Q.** And the Activity [25]?
**A.** Its Activity is 60%.

**Q.** What about the Activity [26] of the same molecule?
**A.** The Activity was 70%.

**Q.** And the Activity [27]?
**A.** Its Activity is 30%.

**Q.** And the Time [28]?
**A.** Its Time is -22 min.

**Q.** What about the Activity [29] of the same molecule?
**A.** Its Activity is 11.4%.

**Q.** For `CCOC(=O)C1(c2ccccc2)CCN(CCC(C#N)(c2ccccc2)c2ccccc2)CC1` [DIPHENOXYLATE], which inhibition in vivo at 0.2 mg/kg [30] is on record?
**A.** Its inhibition in vivo at 0.2 mg/kg is 90%.

**Q.** For `C#CCN1CCC2=C(C1)c1c(O)cc(C(C)C(C)CCc3ccc(F)cc3)cc1OC2(C)C` (stereo not given), which Time [31] is on record?
**A.** The Time was 60 min.

**Q.** And the ED50 [6]?
**A.** Its ED50 is 4.4 mg/kg.

**Q.** And the Activity [32]?
**A.** Its Activity is 73%.

**Q.** What about the Activity [33] of the same molecule?
**A.** The Activity was 30%.

**Q.** And the ED50 [15]?
**A.** Its ED50 is 8.3 mg/kg.

**Q.** And the Activity [16]?
**A.** Its Activity is 59%.

**Q.** What about the inhibition in vivo at 0.5 mg/kg [17] of the same molecule?
**A.** Its inhibition in vivo at 0.5 mg/kg is 0%.

**Q.** And the Activity [34]?
**A.** The Activity was 23%.

**Q.** What about the Time [35] of the same molecule?
**A.** Its Time is 58 min.

**Q.** And the Activity [36]?
**A.** Its Activity is 53%.

**Q.** And the minimal effective dose [20]?
**A.** Its minimal effective dose is 10 mg/kg.

**Q.** And the LD50 [23]?
**A.** The LD50 was ≥ 1000 mg/kg.

**Q.** What does the source list for `CN1CC[C@]23c4c5ccc(O)c4O[C@H]2[C@@H](O)C=C[C@H]3[C@H]1C5`?
**A.** inhibition in vivo at 0.5 mg/kg [17]: 0%; inhibition in vivo at 2 mg/kg [37]: 50%; inhibition in vivo at 1 mg/kg [38]: 30%
